Assay results taken from patent US10183950B2, “Thienopyrimidine inhibitors of atypical protein kinase C” (Cancer Research Technology Limited, priority 2011, dated 2019).
Where two headings read alike, the source gives them in different places.

Biological target: T1, kinase-domain human PKCι (Homo sapiens, UniProt P41743)
T1 construct: Recombinant, kinase-domain human PKCι is expressed and purified in-house; made in house
T1 sequence (P41743 254-522 limits assumed): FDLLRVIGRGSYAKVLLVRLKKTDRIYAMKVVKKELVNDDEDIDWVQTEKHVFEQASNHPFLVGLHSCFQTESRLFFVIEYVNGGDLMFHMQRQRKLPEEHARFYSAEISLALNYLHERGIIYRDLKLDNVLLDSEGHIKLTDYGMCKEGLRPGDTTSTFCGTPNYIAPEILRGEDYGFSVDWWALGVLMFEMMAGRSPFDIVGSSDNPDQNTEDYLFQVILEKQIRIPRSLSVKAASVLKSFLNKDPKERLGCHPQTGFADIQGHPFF
Experiment: PKCι IC50 IMAP fluorescence polarisation assay, kinase-domain enzyme
Format: biochemical
Conditions: kinase domain PKCi at 2 μM ATP
Experimental: Assays are based on the ability of PKCι to phosphorylate a commercially available peptide substrate in vitro. […] Recombinant, full-length human PKCι expressed in Sf21 insect cells is also commercially available. Recombinant, kinase-domain human PKCι is expressed and purified in-house.
The procedure below explains how dose response curves for inhibitors of PKCι are obtained.
Compounds to be tested are dissolved in 100% DMSO. […] 1 μl is plated into 384 well black low-binding flat bottomed assay plates which are used immediately. Dilutions and additions of compound to assay plates are carried out using Matrix WellMate® and Matrix PlateMate® Plus liquid handling systems.
The final concentration of peptide substrate in the assay is 100 nM. […] Relevant controls are included, namely no compound and no enzyme. […] The reaction is allowed to incubate for 60 minutes at room temperature, before the reaction is stopped and developed by the addition of 20 μl IMAP™ development reagent (Molecular Devices). IMAP development reagent consists of 0.25% (v/v) IMAP progressive binding reagent, 17% (v/v) IMAP progressive binding buffer A and 3% (v/v) IMAP progressive binding buffer B. The plates are then incubated for 2 hours at room temperature before being read using an appropriate plate reader, for example a Molecular Devices HT Analyst or a BMG Pherastar.

[1] = read-out: IC50 in IMAP assay against kinase domain PKCi
[2] = read-out: IC50 in IMAP assay against kinase domain PKCi (Activity)

SMILES | IC50 [1] [µM] | IC50 [2] [µM]
Cc1cc(C)c2c(n1)sc1c(N3CCNCC3)nc(-c3ccncc3)nc12 [compound 380, 7,9-Dimethyl-4-piperazin-1-yl-2-pyridin-4-yl-pyrido[3′,2′:4,5]thieno[3,2-d]pyrimidine] | 1 to 10 | 
Cc1n[nH]c(C)c1-c1nc(NC[C@@H](N)Cc2ccccc2)c2c3c(sc2n1)CCCC3 [compound 184, (S)-N*1*-[2-(3,5-Dimethyl-1H-pyrazol-4-yl)-5,6,7,8-tetrahydro-benzo[4,5]thieno[2,3-d]pyrimidin-4-yl]-3-phenyl-propane-1,2-diamine] |  | 1 to 10
c1cnc2sc3c(N4CCNCC4)nc(-c4ccncc4)nc3c2c1 [compound 376, 4-Piperazin-1-yl-2-pyridin-4-yl-pyrido[3′,2′:4,5]thieno[3,2-d]pyrimidine] | 10 to 40 | 
c1cc(-c2nc(N3CCCNCC3)c3c4c(sc3n2)CCCC4)ccn1 [compound 14, 4-[1,4]Diazepan-1-yl-2-pyridin-4-yl-5,6,7,8-tetrahydro-benzo[4,5]thieno[2,3-d]pyrimidine] |  | 0.1 to 1
NCCNc1nc(-c2ccncc2)nc2c1sc1ncccc12 [compound 375, N*1*-(2-Pyridin-4-yl-pyrido[3′,2′:4,5]thieno[3,2-d]pyrimidin-4-yl)-ethane-1,2-diamine] | 1 to 10 | 
C[C@H](N)CNc1nc(-c2cn[nH]c2)nc2sc3c(c12)CCCC3 [compound 187, (S)-N*1*-[2-(1H-Pyrazol-4-yl)-5,6,7,8-tetrahydro-benzo[4,5]thieno[2,3-d]pyrimidin-4-yl]-propane-1,2-diamine] |  | 0.1 to 1
Clc1cccc2sc3c(OC[C@@H]4CCCN4)nc(-c4ccncc4)nc3c12 [compound 479, 9-Chloro-2-pyridin-4-yl-4-((S)-1-pyrrolidin-2-ylmethoxy)-benzo[4,5]thieno[3,2-d]pyrimidine] | 1 to 10 | 
c1cncc(CN2CCN(c3nc(-c4ccncc4)nc4sc5c(c34)CCCC5)CC2)c1 [compound 130, 2-Pyridin-4-yl-4-(4-pyridin-3-ylmethyl-piperazin-1-yl)-5,6,7,8-tetrahydro-benzo[4,5]thieno[2,3-d]pyrimidine] |  | 10 to 40
NCCNc1nc(-c2ccncc2)nc2sc3c(c12)CCCCCC3 [compound 24, N*1*-(2-Pyridin-4-yl-5,6,7,8,9,10-hexahydro-11-thia-1,3-diaza-cycloocta[a]inden-4-yl)-ethane-1,2-diamine] |  | 0.1 to 1
Brc1ccc(-c2csc3nc(-c4ccncc4)nc(N4CCCNCC4)c23)cc1 [compound 93, 5-(4-Bromo-phenyl)-4-[1,4]diazepan-1-yl-2-pyridin-4-yl-thieno[2,3-d]pyrimidine] |  | 1 to 10
CCc1cc2c(NCCN)nc(-c3ccncc3)nc2s1 [compound 33, N*1*-(6-Ethyl-2-pyridin-4-yl-thieno[2,3-d]pyrimidin-4-yl)-ethane-1,2-diamine] |  | 1 to 10
C[C@H](N)COc1nc(-c2ccncc2)nc2sc3c(c12)CCCC3 [compound 144, (S)-1-Methyl-2-(2-pyridin-4-yl-5,6,7,8-tetrahydro-benzo[4,5]thieno[2,3-d]pyrimidin-4-yloxy)-ethylamine] |  | 0.1 to 1
Cc1ccc(C[C@H](N)COc2nc(-c3ccncc3)nc3sc4c(c23)CCCC4)cc1 [compound 166, (S)-1-(4-Methyl-benzyl)-2-(2-pyridin-4-yl-5,6,7,8-tetrahydro-benzo[4,5]thieno[2,3-d]pyrimidin-4-yloxy)-ethylamine] |  | 1 to 10
Cc1ccccc1C[C@H](N)COc1nc(-c2ccncc2)nc2sc3c(c12)CCCC3 [compound 174, (S)-1-(2-Methyl-benzyl)-2-(2-pyridin-4-yl-5,6,7,8-tetrahydro-benzo[4,5]thieno[2,3-d]pyrimidin-4-yloxy)-ethylamine] |  | 1 to 10
Cc1csc2c(N3CCNCC3)nc(-c3ccncc3)nc12 [compound 363, 7-Methyl-4-piperazin-1-yl-2-pyridin-4-yl-thieno[3,2-d]pyrimidine] | 0.1 to 1 | 
c1cc(-c2nc(OC[C@@H]3CCCN3)c3c4c(sc3n2)CCCC4)ccn1 [compound 154, 2-Pyridin-4-yl-4-((S)-1-pyrrolidin-2-ylmethoxy)-5,6,7,8-tetrahydro-benzo[4,5]thieno[2,3-d]pyrimidine] |  | 1 to 10
Cc1csc2c(NC[C@@H](C)N)nc(-c3ccncc3)nc12 [compound 369, (R)-N*1*-(7-Methyl-2-pyridin-4-yl-thieno[3,2-d]pyrimidin-4-yl)-propane-1,2-diamine] | 1 to 10 | 
C[C@@H]1CN[C@@H](C)CN1c1nc(-c2ccncc2)nc2sc3c(c12)CCCC3 [compound 10, 4-((2R,5S)-2,5-Dimethyl-piperazin-1-yl)-2-pyridin-4-yl-5,6,7,8-tetrahydro-benzo[4,5]thieno[2,3-d]pyrimidine] |  | 1 to 10
c1cc(-c2nc(N3CCNCC3)c3c4c(sc3n2)CCCCC4)ccn1 [compound 85, 4-Piperazin-1-yl-2-pyridin-4-yl-6,7,8,9-tetrahydro-5H-10-thia-1,3-diaza-benzo[a]azulene] |  | 0.1 to 1
c1ccc(-c2cc3nc(-c4ccncc4)nc(N4CCCNCC4)c3s2)cc1 [compound 368, 4-[1,4]Diazepan-1-yl-6-phenyl-2-pyridin-4-yl-thieno[3,2-d]pyrimidine] | 1 to 10 | 
CC[C@@H](N)CNc1nc(-c2ccncc2)nc2sc3c(c12)CCCC3 [compound 17, (R)-N*1*-(2-Pyridin-4-yl-5,6,7,8-tetrahydro-benzo[4,5]thieno[2,3-d]pyrimidin-4-yl)-butane-1,2-diamine] |  | 1 to 10
Cc1csc2c(NCCN)nc(-c3ccncc3)nc12 [compound 370, N*1*-(7-Methyl-2-pyridin-4-yl-thieno[3,2-d]pyrimidin-4-yl)-ethane-1,2-diamine] | 0.1 to 1 | 
CN1CCCN(c2nc(-c3ccncc3)nc3sc4c(c23)CCCC4)CC1 [compound 4, 4-(4-Methyl-[1,4]diazepan-1-yl)-2-pyridin-4-yl-5,6,7,8-tetrahydro-benzo[4,5]thieno[2,3-d]pyrimidine] |  | 0.1 to 1
Brc1cnccc1CN1CCN(c2nc(-c3ccncc3)nc3sc4c(c23)CCCC4)CC1 [compound 131, 4-[4-(3-Bromo-pyridin-4-ylmethyl)-piperazin-1-yl]-2-pyridin-4-yl-5,6,7,8-tetrahydro-benzo[4,5]thieno[2,3-d]pyrimidine] |  | 10 to 40
N[C@H](CNc1nc(-c2cn[nH]c2)nc2sc3c(c12)CCCC3)Cc1ccccc1 [compound 183, (S)-3-Phenyl-N*1*-[2-(1H-pyrazol-4-yl)-5,6,7,8-tetrahydro-benzo[4,5]thieno[2,3-d]pyrimidin-4-yl]-propane-1,2-diamine] |  | 0.1 to 1
Cc1n[nH]c(C)c1-c1nc(NC[C@@H](C)N)c2c3c(sc2n1)CCCC3 [compound 193, (R)-N*1*-[2-(3,5-Dimethyl-1H-pyrazol-4-yl)-5,6,7,8-tetrahydro-benzo[4,5]thieno[2,3-d]pyrimidin-4-yl]-propane-1,2-diamine] |  | 10 to 40
C[C@@H](N)CNc1nc(-c2ccncc2)nc2cc(-c3ccc(C(C)(C)C)cc3)sc12 [compound 358, (R)-N*1*-[6-(4-tert-Butyl-phenyl)-2-pyridin-4-yl-thieno[3,2-d]pyrimidin-4-yl]-propane-1,2-diamine] | 10 to 40 | 
Cc1csc2nc(-c3ccncc3)nc(N3CCNCC3)c12 [compound 94, 5-Methyl-4-piperazin-1-yl-2-pyridin-4-yl-thieno[2,3-d]pyrimidine] |  | < 0.1
